ChEMBL document CHEMBL2176967, “Radiofluorinated derivatives of 2-(phosphonomethyl)pentanedioic acid as inhibitors of prostate specific membrane antigen (PSMA) for the imaging of prostate cancer” (J Med Chem, 2012)

Legend:
[1] = biological target: T1, Glutamate carboxypeptidase 2 (Homo sapiens, UniProt Q04609); test: Binding affinity to NAALADase
[2] = biological target: T1, Glutamate carboxypeptidase 2; test: biochemical
Description: Inhibition of NAALADase activity in human LNCaP cell membranes assessed as inhibition of [3H]NAG conversion to [3H]glutamate after 30 mins by liquid scintillation counting

[3] = tested on: Kidney; test: Drug level in human LNCaP cells xenografted Balb/c mouse kidney at 10 MBq, iv measured after 45 to 130 mins by PET/CT scanning in presence of unlabelled compound; assay type: ADME, organism-based; details: in vivo
[4] = Drug level in human LNCaP cells xenografted Balb/c mouse tumor at 10 MBq, iv measured after 45 to 130 mins by PET/CT scanning in presence of unlabelled compound; assay type: ADME, organism-based, Neoplasm; details: in vivo
[5] = Drug level in human LNCaP cells xenografted Balb/c mouse gut at 10 MBq, iv measured after 45 to 130 mins by PET/CT scanning; assay type: ADME, organism-based; details: in vivo
[6] = tested on: Liver; test: Drug level in human LNCaP cells xenografted Balb/c mouse liver at 10 MBq, iv measured after 45 to 130 mins by PET/CT scanning; assay type: ADME, organism-based; details: in vivo
[7] = tested on: Bone; test: Drug level in human LNCaP cells xenografted Balb/c mouse bone at 10 MBq, iv measured after 45 to 130 mins by PET/CT scanning; assay type: ADME, organism-based, Bone element; details: in vivo
[8] = tested on: Kidney; test: Drug level in human LNCaP cells xenografted Balb/c mouse kidney at 10 MBq, iv measured after 45 to 130 mins by PET/CT scanning; assay type: ADME, organism-based; details: in vivo
[9] = tested on: Urinary bladder; test: Drug level in human LNCaP cells xenografted Balb/c mouse bladder at 10 MBq, iv measured after 45 to 130 mins by PET/CT scanning; assay type: ADME, organism-based; details: in vivo
[10] = Drug level in human LNCaP cells xenografted Balb/c mouse tumor at 10 MBq, iv measured after 45 to 130 mins by PET/CT scanning; assay type: ADME, organism-based, Neoplasm; details: in vivo

T1 sequence (Q04609 whole entry): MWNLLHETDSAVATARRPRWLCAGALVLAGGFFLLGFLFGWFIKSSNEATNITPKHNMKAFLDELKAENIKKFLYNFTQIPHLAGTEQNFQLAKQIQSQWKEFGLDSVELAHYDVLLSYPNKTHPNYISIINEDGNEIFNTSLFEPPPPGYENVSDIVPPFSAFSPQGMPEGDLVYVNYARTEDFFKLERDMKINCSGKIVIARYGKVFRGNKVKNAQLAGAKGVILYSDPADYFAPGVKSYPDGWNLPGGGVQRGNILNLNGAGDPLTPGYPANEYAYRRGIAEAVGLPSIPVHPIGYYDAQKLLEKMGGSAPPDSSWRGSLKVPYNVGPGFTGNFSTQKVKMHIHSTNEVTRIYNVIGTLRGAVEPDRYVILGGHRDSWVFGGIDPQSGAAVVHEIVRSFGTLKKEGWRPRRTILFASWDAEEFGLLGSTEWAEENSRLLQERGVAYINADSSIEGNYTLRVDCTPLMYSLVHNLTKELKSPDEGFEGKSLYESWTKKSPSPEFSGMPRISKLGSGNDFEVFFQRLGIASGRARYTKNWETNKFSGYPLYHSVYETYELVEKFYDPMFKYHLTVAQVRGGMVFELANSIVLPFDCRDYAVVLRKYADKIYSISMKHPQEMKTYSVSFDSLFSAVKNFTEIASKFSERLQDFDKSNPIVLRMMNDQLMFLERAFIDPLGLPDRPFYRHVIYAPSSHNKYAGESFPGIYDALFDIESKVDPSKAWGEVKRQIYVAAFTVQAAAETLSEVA

| Compound | Ki [1] [nM] | IC50 [2] [nM] | Ki [2] [nM] | other results |
| --- | --- | --- | --- | --- |
| C[C@H](C[C@H](NC(=O)N[C@@H](C[C@@H](C)C(=O)O)C(=O)O)C(=O)O)C(=O)O | 1280 | – | – | – |
| O=C(O)[C@H](C[C@@H](F)C(=O)O)CP(=O)(O)O | – | 8.1 | 3.1 | – |
| O=C(O)[C@@H](C[C@H](F)C(=O)O)CP(=O)(O)O | – | 55.9 | 22 | – |
| O=C(O)CCCC(CP(=O)(O)O)C(=O)O (stereo not drawn) | – | – | – | IC50 [1]: 185 nM |
| O=C(O)CC[C@H](NC(=O)N[C@@H](CCC(=O)O)C(=O)O)C(=O)O | 8 | – | – | – |
| O=C(O)C([18F])CC(CP(=O)(O)O)C(=O)O (racemic) | – | – | – | Drug uptake [3]: Not Active; Drug uptake [4]: Not Active; Drug uptake [5]: Not Active; Drug uptake [6]: Not Active; Drug uptake [7]: Active; Drug uptake [8]: Active; Drug uptake [9]: Active; Drug uptake [10]: Active |

The next lines start with results.

| Ki [1] [nM] | IC50 [2] [nM] | Ki [2] [nM] | Compound | other results |
| --- | --- | --- | --- | --- |
| 1110 | – | – | C[C@@H](C[C@H](NC(=O)N[C@@H](C[C@H](C)C(=O)O)C(=O)O)C(=O)O)C(=O)O | – |
| – | 89.4 | 36.4 | O=C(O)[C@@H](C[C@@H](F)C(=O)O)CP(=O)(O)O | – |
| – | 3.1 | 1.4 | O=C(O)[C@H](C[C@H](F)C(=O)O)CP(=O)(O)O | – |
| 392 | – | – | O=C(N[C@@H](C[C@@H](Cc1ccccc1)C(=O)O)C(=O)O)N[C@@H](C[C@@H](Cc1ccccc1)C(=O)O)C(=O)O | – |
| – | 6.8 | 2.6 | O=C(O)C(F)CC(CP(=O)(O)O)C(=O)O (racemic) | – |
